From ChEMBL document CHEMBL1201862, “PubChem BioAssay data set” (2004)
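1) Cells in 96-well plates. 2) Compound, 48 h, 5 concentrations. 3) Linear interpolation between surrounding doses. 4) Unreached endpoint = highest concentration. At the GI50, growth is halved.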 The source made the active and inactive calls. Rule as the data show it: active = GI50 up to about 1.1 µM and inactive = higher.

Experiments:
Test in all cases: NCI tumour cell line growth inhibition, 48 h
[1] = tested on: RXF 393
[2] = tested on: EKVX
[3] = tested on: PC-3
[4] = tested on: BT-549
[5] = tested on: K562
[6] = tested on: LOX IMVI
[7] = tested on: MOLT-4
[8] = tested on: A549
[9] = tested on: CCRF-CEM
[10] = tested on: HCC 2998
[11] = tested on: HCT-116
[12] = tested on: OVCAR-3
[13] = tested on: M14
[14] = tested on: SNB-19
[15] = tested on: IGROV-1
[16] = tested on: U-251
[17] = tested on: SK-MEL-2
[18] = tested on: NCI-H23
[19] = tested on: Malme-3M
[20] = tested on: 786-0
[21] = tested on: NCI-H226
[22] = tested on: NCI/ADR-RES
[23] = tested on: UO-31
[24] = tested on: DU-145
[25] = tested on: HCT-15
[26] = tested on: SF-268
[27] = tested on: MDA-MB-231
[28] = tested on: NCI-H522
[29] = tested on: OVCAR-8
[30] = tested on: NCI-H460
[31] = tested on: UACC-62
[32] = tested on: SN12C
[33] = tested on: OVCAR-4
[34] = tested on: RPMI-8226
[35] = tested on: ACHN
[36] = tested on: MDA-N
[37] = tested on: COLO 205
[38] = tested on: HOP-62
[39] = tested on: TK-10
[40] = tested on: SNB-75
[41] = tested on: MCF7
[42] = tested on: SK-OV-3
[43] = tested on: UACC-257
[44] = tested on: SK-MEL-5
[45] = tested on: SW-620
[46] = tested on: SK-MEL-28
[47] = tested on: SF-295
[48] = tested on: HL-60
[49] = tested on: CAKI-1
[50] = tested on: Hs-578T
[51] = tested on: MDA-MB-435
[52] = tested on: SF-539
[53] = tested on: T47D
[54] = tested on: OVCAR-5
[55] = tested on: KM12
[56] = tested on: HT-29
[57] = tested on: A498
[58] = tested on: HOP-92

SMILES: COC(=O)C1=C(OC)C(=P2(c3ccccc3)CC(c3ccccc3)=C2c2ccccc2)C(C(=O)OC)=C1C(=O)OC (stereo not given)
- GI50 [1]: 18.1 µM (inactive)
- GI50 [2]: > 91.8 µM (inactive)
- GI50 [3]: 10.8 µM (inactive)
- GI50 [4]: > 76.6 µM (inactive)
- GI50 [5]: 4.58 µM (inactive)
- GI50 [6]: 25.1 µM (inactive)
- GI50 [7]: 3.17 µM (inactive)
- GI50 [8]: 26.4 µM (inactive)
- GI50 [9]: 0.745 µM (active)
- GI50 [10]: > 100 µM (inactive)
- GI50 [11]: 22.8 µM (inactive)
- GI50 [12]: 35 µM (inactive)
- GI50 [13]: 43.5 µM (inactive)
- GI50 [14]: 67.1 µM (inactive)
- GI50 [15]: 22.2 µM (inactive)
- GI50 [16]: 19.9 µM (inactive)
- GI50 [17]: 54.5 µM (inactive)
- GI50 [18]: 33.8 µM (inactive)
- GI50 [19]: 29.9 µM (inactive)
- GI50 [20]: 27.4 µM (inactive)
- GI50 [21]: 68.9 µM (inactive)
- GI50 [22]: > 82.4 µM (inactive)
- GI50 [23]: 14.9 µM (inactive)
- GI50 [24]: > 61.2 µM (inactive)
- GI50 [25]: 11 µM
- GI50 [26]: > 61.1 µM (inactive)
- GI50 [27]: > 72.8 µM (inactive)
- GI50 [28]: 2.65 µM (inactive)
- GI50 [29]: > 95.7 µM (inactive)
- GI50 [30]: 15 µM (inactive)
- GI50 [31]: 61.2 µM (inactive)
- GI50 [32]: 31.8 µM (inactive)
- GI50 [33]: 19.5 µM (inactive)
- GI50 [34]: 9.42 µM (inactive)
- GI50 [35]: 49.8 µM (inactive)
- GI50 [36]: 38 µM (inactive)
- GI50 [37]: 18.8 µM (inactive)
- GI50 [38]: > 100 µM (inactive)
- GI50 [39]: > 20.2 µM (inactive)
- GI50 [40]: 41.6 µM (inactive)
- GI50 [41]: 7.55 µM (inactive)
- GI50 [42]: > 61.5 µM (inactive)
- GI50 [43]: > 71.1 µM (inactive)
- GI50 [44]: 15.7 µM (inactive)
- GI50 [45]: 14.6 µM (inactive)
- GI50 [46]: > 68.5 µM (inactive)
- GI50 [47]: > 76.6 µM (inactive)
- GI50 [48]: 0.968 µM (active)
- GI50 [49]: 50.4 µM (inactive)
- GI50 [50]: > 100 µM (inactive)
- GI50 [51]: 40.7 µM (inactive)
- GI50 [52]: 23.6 µM (inactive)
- GI50 [53]: 15.5 µM (inactive)
- GI50 [54]: > 100 µM (inactive)
- GI50 [55]: 27.5 µM (inactive)

SMILES: O=c1cc(N2CCNCC2)nc2ccccn12
- GI50 [1]: > 100 µM (inactive)
- GI50 [2]: > 100 µM (inactive)
- GI50 [3]: > 100 µM (inactive)
- GI50 [4]: > 100 µM (inactive)
- GI50 [5]: > 100 µM (inactive)
- GI50 [6]: > 100 µM (inactive)
- GI50 [7]: > 100 µM (inactive)
- GI50 [8]: > 100 µM (inactive)
- GI50 [9]: > 100 µM (inactive)
- GI50 [10]: > 100 µM (inactive)
- GI50 [11]: > 100 µM (inactive)
- GI50 [12]: > 100 µM (inactive)
- GI50 [13]: > 100 µM (inactive)
- GI50 [14]: > 100 µM (inactive)
- GI50 [15]: > 100 µM (inactive)
- GI50 [16]: > 100 µM (inactive)
- GI50 [17]: > 100 µM (inactive)
- GI50 [56]: > 100 µM (inactive)
- GI50 [18]: > 100 µM (inactive)
- GI50 [57]: > 100 µM (inactive)
- GI50 [19]: > 100 µM (inactive)
- GI50 [58]: > 100 µM (inactive)
- GI50 [20]: > 100 µM (inactive)
- GI50 [21]: > 100 µM (inactive)
- GI50 [22]: > 100 µM (inactive)
- GI50 [23]: > 100 µM (inactive)
- GI50 [24]: > 100 µM (inactive)
- GI50 [25]: > 100 µM
- GI50 [26]: > 100 µM (inactive)
- GI50 [27]: > 100 µM (inactive)
- GI50 [28]: > 100 µM (inactive)
- GI50 [29]: > 100 µM (inactive)
- GI50 [31]: > 100 µM (inactive)
- GI50 [32]: > 100 µM (inactive)
- GI50 [34]: > 100 µM (inactive)
- GI50 [35]: > 100 µM (inactive)
- GI50 [36]: > 100 µM (inactive)
- GI50 [37]: > 100 µM (inactive)
- GI50 [38]: > 100 µM (inactive)
- GI50 [39]: > 100 µM (inactive)
- GI50 [40]: > 100 µM (inactive)
- GI50 [41]: > 100 µM (inactive)
- GI50 [42]: > 100 µM (inactive)
- GI50 [43]: > 100 µM (inactive)
- GI50 [44]: > 100 µM (inactive)
- GI50 [45]: > 100 µM (inactive)
- GI50 [47]: > 100 µM (inactive)
- GI50 [48]: > 100 µM (inactive)
- GI50 [49]: > 100 µM (inactive)
- GI50 [50]: > 100 µM (inactive)
- GI50 [51]: > 100 µM (inactive)
- GI50 [52]: > 100 µM (inactive)
- GI50 [53]: > 100 µM (inactive)
- GI50 [54]: > 100 µM (inactive)
- GI50 [55]: > 100 µM (inactive)
